Patent publication US20230128402A1 (The Trustees of Princeton University, priority 2020, published 2023)

biological target: T1, mALDH1a3 (Mus musculus, UniProt Q9JHW9); experiment: Aldh1a3 enzyme inhibition assay, recombinant mALDH1a3; format: biochemical; conditions: resorufin fluorescence, 20° C.
T1 construct: made in house; host or cells: E. coli BL21-DE3, pET-Aldh1a3
T1 sequence (Q9JHW9 1-512): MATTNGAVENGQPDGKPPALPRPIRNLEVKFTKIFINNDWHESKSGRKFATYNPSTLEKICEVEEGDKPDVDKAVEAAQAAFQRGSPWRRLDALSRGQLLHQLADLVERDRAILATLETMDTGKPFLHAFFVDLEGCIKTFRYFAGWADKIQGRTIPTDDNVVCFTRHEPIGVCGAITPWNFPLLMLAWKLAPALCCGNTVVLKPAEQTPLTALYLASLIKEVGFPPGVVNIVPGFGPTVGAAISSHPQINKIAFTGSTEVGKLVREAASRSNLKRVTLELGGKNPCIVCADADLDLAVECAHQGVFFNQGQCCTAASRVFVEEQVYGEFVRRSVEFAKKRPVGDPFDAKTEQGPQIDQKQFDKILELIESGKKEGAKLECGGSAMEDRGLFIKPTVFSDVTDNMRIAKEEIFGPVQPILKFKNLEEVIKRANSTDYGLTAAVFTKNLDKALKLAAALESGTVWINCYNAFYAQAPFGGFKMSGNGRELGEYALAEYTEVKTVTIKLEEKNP
From the text: (§1) Recombinant enzyme and inhibitor added immediately before assay. Reaction rate measured by resorufin fluorescence.

Row | IC50 [µM] | Compound
1 | 1 to 5 | Cc1ccc(C)c(CNc2ccc3c(c2)CCC(=O)N3)c1 [Compound 10]
2 | 1 to 5 | Cc1ccccc1C(=O)Nc1ccc2c(c1)CCC(=O)N2 [Compound 13]
3 | > 5 | O=C1CCc2cc(NCc3ccccc3)ccc2N1 [Compound 14]
4 | 0.25 to 1 | CCc1cnccc1C(=O)Nc1cc2c(cc1C#N)NC(=O)CC2 [Compound 84, N-(7-cyano-2-oxo-3,4-dihydro-1H-quinolin-6-yl)-3-ethyl-pyridine-4-carboxamide]
5 | > 5 | CCc1cnccc1CC(=O)Nc1ccc2c(c1)CCC(=O)N2 [Compound 31, 2-(3-ethyl-4-pyridyl)-N-(2-oxo-3,4-dihydro-1H-quinolin-6-yl) acetamide]
6 | < 0.1 | O=C1CCc2cc(Nc3cnc4ccccc4n3)ncc2N1 [Compound 126, 6-(quinoxalin-2-ylamino)-3,4-dihydro-1H-1,7-naphthyridin-2-one]
7 | > 5 | CCc1cc(=O)n(C)cc1C(=O)Nc1ccc2c(c1)CCC(=O)N2 [Compound 76, 4-ethyl-1-methyl-6-oxo-N-(2-oxo-3,4-dihydro-1H-quinolin-6-yl)pyridine-3-carboxamide]
8 | 0.25 to 1 | CCCc1cnccc1C(=O)Nc1cc2c(cc1F)NC(=O)CC2 [Compound 5]
9 | > 5 | O=S1(=O)CCc2cc(Nc3ccc4ccccc4n3)ccc2N1 [Compound 102]
10 | > 5 | CC1(C)Cc2cc(Nc3ccc4c(c3)NC(=O)CC4)ccc2NC1=O [Compound 114, 3,3-dimethyl-6-[(2-oxo-3,4-dihydro-1H-quinolin-7-yl)amino]-1,4-dihydroquinolin-2-one]
11 | > 5 | O=C1CCc2cc(Oc3ncc4ccccc4n3)ccc2N1 [Compound 119, 6-quinazolin-2-yloxy-3,4-dihydro-1H-quinolin-2-one]
12 | > 5 | COc1cnccc1C(=O)Nc1cc2c(cc1F)NC(=O)C(C)(C)C2 [Compound 41, N-(7-fluoro-3,3-dimethyl-2-oxo-1,4-dihydroquinolin-6-yl)-3-methoxy-pyridine-4-carboxamide]
13 | 0.25 to 1 | CCc1cnccc1C(=O)Nc1ccc2c(c1)CC(C)C(=O)N2 (centres unmarked) [Compound 63, 3-ethyl-N-(3-methyl-2-oxo-3,4-dihydro-1H-quinolin-6-yl)pyridine-4-carboxamide]
14 | 1 to 5 | Cc1cccc2ncc(Nc3ccc4c(c3)CCC(=O)N4)cc12 [Compound 101, 6-[(5-methyl-3-quinolyl)amino]-3,4-dihydro-1H-quinolin-2-one]
15 | > 5 | N#Cc1ccc2nc(Nc3ccc4c(c3)CCC(=O)N4)ccc2c1 [Compound 88, 2-[(2-oxo-3,4-dihydro-1H-quinolin-6-yl)amino]quinoline-6-carbonitrile]
16 | > 5 | CCc1cnccc1C(=O)N(C)c1ccc2c(c1)CCC(=O)N2 [Compound 27, 3-ethyl-N-methyl-N-(2-oxo-3,4-dihydro-1H-quinolin-6-yl)pyridine-4-carboxamide]

biological target: T2, ALDH1a3 (Homo sapiens, UniProt P47895); experiment: Aldh1a3 enzyme inhibition assay, recombinant hALDH1a3; format: biochemical; design: made in house; host or cells: E. coli BL21-DE3, pET-Aldh1a3; conditions: resorufin fluorescence, 20° C.
T2 sequence (P47895 1-512): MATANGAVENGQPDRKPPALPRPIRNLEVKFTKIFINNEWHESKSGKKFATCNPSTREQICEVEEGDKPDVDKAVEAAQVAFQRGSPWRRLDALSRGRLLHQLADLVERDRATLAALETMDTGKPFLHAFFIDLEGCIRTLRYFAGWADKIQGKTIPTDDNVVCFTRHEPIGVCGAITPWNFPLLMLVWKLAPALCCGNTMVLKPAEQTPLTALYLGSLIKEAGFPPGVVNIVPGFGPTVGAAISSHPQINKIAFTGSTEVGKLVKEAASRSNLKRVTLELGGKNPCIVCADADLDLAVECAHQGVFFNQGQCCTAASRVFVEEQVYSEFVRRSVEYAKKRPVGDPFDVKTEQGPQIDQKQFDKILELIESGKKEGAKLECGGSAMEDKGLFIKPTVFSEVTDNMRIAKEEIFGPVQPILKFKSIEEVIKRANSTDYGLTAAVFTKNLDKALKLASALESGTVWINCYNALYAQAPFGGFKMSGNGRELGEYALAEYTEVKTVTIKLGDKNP
From the text: as §1

Row | IC50 [µM] | Compound
17 | 1 to 5 | Cc1ccc(C)c(CNc2ccc3c(c2)CCC(=O)N3)c1 [Compound 10]
18 | > 5 | Cc1ccccc1C(=O)Nc1ccc2c(c1)CCC(=O)N2 [Compound 13]
19 | > 5 | O=C1CCc2cc(NCc3ccccc3)ccc2N1 [Compound 14]
20 | 0.25 to 1 | CCc1cnccc1C(=O)Nc1cc2c(cc1C#N)NC(=O)CC2 [Compound 84, N-(7-cyano-2-oxo-3,4-dihydro-1H-quinolin-6-yl)-3-ethyl-pyridine-4-carboxamide]
21 | > 5 | CCc1cnccc1CC(=O)Nc1ccc2c(c1)CCC(=O)N2 [Compound 31, 2-(3-ethyl-4-pyridyl)-N-(2-oxo-3,4-dihydro-1H-quinolin-6-yl) acetamide]
22 | 0.25 to 1 | O=C1CCc2cc(Nc3cnc4ccccc4n3)ncc2N1 [Compound 126, 6-(quinoxalin-2-ylamino)-3,4-dihydro-1H-1,7-naphthyridin-2-one]
23 | > 5 | CCc1cc(=O)n(C)cc1C(=O)Nc1ccc2c(c1)CCC(=O)N2 [Compound 76, 4-ethyl-1-methyl-6-oxo-N-(2-oxo-3,4-dihydro-1H-quinolin-6-yl)pyridine-3-carboxamide]
24 | < 0.1 | CCCc1cnccc1C(=O)Nc1cc2c(cc1F)NC(=O)CC2 [Compound 5]
25 | > 5 | O=S1(=O)CCc2cc(Nc3ccc4ccccc4n3)ccc2N1 [Compound 102]
26 | > 5 | CC1(C)Cc2cc(Nc3ccc4c(c3)NC(=O)CC4)ccc2NC1=O [Compound 114, 3,3-dimethyl-6-[(2-oxo-3,4-dihydro-1H-quinolin-7-yl)amino]-1,4-dihydroquinolin-2-one]
27 | > 5 | O=C1CCc2cc(Oc3ncc4ccccc4n3)ccc2N1 [Compound 119, 6-quinazolin-2-yloxy-3,4-dihydro-1H-quinolin-2-one]
28 | > 5 | COc1cnccc1C(=O)Nc1cc2c(cc1F)NC(=O)C(C)(C)C2 [Compound 41, N-(7-fluoro-3,3-dimethyl-2-oxo-1,4-dihydroquinolin-6-yl)-3-methoxy-pyridine-4-carboxamide]
29 | 0.1 to 0.25 | CCc1cnccc1C(=O)Nc1ccc2c(c1)CC(C)C(=O)N2 (centres unmarked) [Compound 63, 3-ethyl-N-(3-methyl-2-oxo-3,4-dihydro-1H-quinolin-6-yl)pyridine-4-carboxamide]
30 | 1 to 5 | Cc1cccc2ncc(Nc3ccc4c(c3)CCC(=O)N4)cc12 [Compound 101, 6-[(5-methyl-3-quinolyl)amino]-3,4-dihydro-1H-quinolin-2-one]
31 | > 5 | N#Cc1ccc2nc(Nc3ccc4c(c3)CCC(=O)N4)ccc2c1 [Compound 88, 2-[(2-oxo-3,4-dihydro-1H-quinolin-6-yl)amino]quinoline-6-carbonitrile]
32 | > 5 | CCc1cnccc1C(=O)N(C)c1ccc2c(c1)CCC(=O)N2 [Compound 27, 3-ethyl-N-methyl-N-(2-oxo-3,4-dihydro-1H-quinolin-6-yl)pyridine-4-carboxamide]

biological target: T2, ALDH1a3; experiment: ALDEFLUOR assay in SUM159-M1a-Aldh1a3 cells; format: cell-based; design: lentiviral vectors containing either the vector backbone or full-length human Aldh1a3; expressed in transfected cells; host or cells: SUM159-M1a human breast cancer cells, lentiviral pLex vector; conditions: SUM159-M1a-Aldh1a3 cells; compound at 100 nM
Experimental: Cells were counted, centrifuged and resuspended at 1,000,000 cells/mL in ALDEFLUOR™ buffer (Stemcell Technologies). ALDEFLUOR™ substrate (Stemcell Technologies, 1:200) and test compound or 1 mM DEAB were added to cell suspension and incubated at 37° C. for 45 minutes with vortexing every 15 minutes. Cells were centrifuged and resuspended in ALDEFLUOR™ buffer with DAPI at 5 μg/mL. Samples were analyzed with the BD LSR2 flow cytometry platform. Gating was performed using DEAB as a negative control.
Gating for background fluorescence was performed using 1 millimolar DEAB as a negative control.
The [inh-min]threshold was set at the lower bound of two standard deviations of control samples, while the IC50 threshold was set at 50% of the average of control samples.
An ALDEFLUOR™ assay was also used to assess the relative activity of several compounds described herein against SUM159-M1a-Aldh1a3 cells.

Row | Inhi-bitory Activity at 100 nM (%) | Percent of Cells Positive for ALDEFLUOR ™ at 100 nM [%] | Compound
33 | 45 | 42 | Cc1ccc(C)c(CNc2ccc3c(c2)CCC(=O)N3)c1 [Compound 10]
34 | 42 | 45 | Cc1ccccc1C(=O)Nc1ccc2c(c1)CCC(=O)N2 [Compound 13]
35 | 11 | 68 | O=C1CCc2cc(NCc3ccccc3)ccc2N1 [Compound 14]
